Test results: patent US20150104466A1, “CYTOMEGALOVIRUS DISINTEGRIN-LIKE PEPTIDES” (priority 2013, published 2015)

Legend:
HCMV strain AD169 = assay: Virus entry assay: HCMV infectivity by IE gene expression (immunofluorescence); assay type: cell-based, Human cytomegalovirus; details: NHDFs treated with peptide or antibody prior to HCMV challenge
Procedure: (§1) For CMV entry assays, subconfluent cells were grown on glass coverslips in 12-well plates. Integrin neutralizing antibodies or peptides were incubated in serum-free DMEM with cell monolayer for 30 minutes at 37° C. Cells were washed with phosphate-buffered saline (PBS) and incubated with HCMV strain AD169, MCMV Smith strain, or MCMV-GFP for 60 minutes at 37° C. Any non-penetrated virus was inactivated with low-pH citrate buffer (40 mM citric acid, 10 mM KCl, 135 mM NaCl, pH 3.0). The cells were incubated 20-24 hours at 37° C. in DMEM supplemented with 2% bovine calf serum (BCS). […] Experiments were performed in triplicate with a minimum of 1000 cells scored per coverslip. […] Cells were incubated 6 hours at 37° C. in DMEM supplemented with 10% BCS prior to lysis (100 mM sodium phosphate, 10 mM KCl, 1 mM magnesium sulfate, 0.1% NP-40, pH 7.4). β-galactosidase activity was measured by addition of o-nitrophenyl-β-D-galactopyranoside (ONPG) and the absorbance was monitored at 420 nm.
FIG. 2A presents the results of a series of assays wherein NHDFs were treated with HCMV gB disintegrin-like peptide, gB disintegrin-like Null peptide, RGD, or RGE peptide prior to HCMV challenge (as indicated in the FIG. 2A). Infectivity was determined by IE gene expression. […]

NHDF cells = assay: Cytoskeletal rearrangement in NHDF cells (actin staining with phalloidin); assay type: cell-based, human; details: compared to buffer alone
Source text: gBDLD Triggers Cytoskeletal Rearrangements: β1 integrins are known inducers of broad signal transduction events. […] To test the role of gBDLD in mediating signaling events, we stimulated NHDF cells with buffer alone, gBDLD, or a known cytoskeletal reorganizer (EGF), followed by actin staining with phalloidin.

HSV-1(KOS)gL86 = assay: HSV entry assay (β-galactosidase activity); assay type: cell-based, herpes simplex virus-1; details: cells treated with peptide, then HSV-1 challenge
Procedure: For CMV entry assays, subconfluent cells were grown on glass coverslips in 12-well plates. Integrin neutralizing antibodies or peptides were incubated in serum-free DMEM with cell monolayer for 30 minutes at 37° C. Cells were washed with phosphate-buffered saline (PBS) and incubated with HCMV strain AD169, MCMV Smith strain, or MCMV-GFP for 60 minutes at 37° C. Any non-penetrated virus was inactivated with low-pH citrate buffer (40 mM citric acid, 10 mM KCl, 135 mM NaCl, pH 3.0). The cells were incubated 20-24 hours at 37° C. in DMEM supplemented with 2% bovine calf serum (BCS). Immunofluorescence analysis was performed as previously described^28 with either mouse anti-IE monoclonal antibody 1203, mouse anti-pp65 monoclonal antibody or rabbit anti-MCMV el polyclonal, followed by detection with a fluorescein-conjugated goat anti-mouse secondary or a fluorescein-conjugated goat anti-rabbit secondary antibody. Nuclei were stained with 300 nM 4′,6-diamidino-2-phenylindole (DAPI). Experiments were performed in triplicate with a minimum of 1000 cells scored per coverslip. […] Cells were incubated 6 hours at 37° C. in DMEM supplemented with 10% BCS prior to lysis (100 mM sodium phosphate, 10 mM KCl, 1 mM magnesium sulfate, 0.1% NP-40, pH 7.4). β-galactosidase activity was measured by addition of o-nitrophenyl-β-D-galactopyranoside (ONPG) and the absorbance was monitored at 420 nm.

HCMV AD 169 = assay: Virus binding assay: HCMV attachment to NHDF cells at 4° C. (gB ELISA); assay type: cell-based, Human cytomegalovirus; details: 1 mM peptide, 1:50 DE9, α2 and α6 antibodies 20 μg/mL
Procedure: NHDF cells were grown in 96-well plates and treated with integrin-neutralizing antibodies, peptides, or heparin for 60 minutes at 4° C. Cells were then challenged with HCMV AD 169 at a multiplicity of infection (MOI) of 5 pfu/cell for 60 minutes at 4° C. Unbound virus was removed and cells were washed and fixed with 3% paraformaldehyde. Bound HCMV was detected with monoclonal antibody 27-78, horseradish peroxidase (HRP)-conjugated goat anti-mouse secondary antibody, and ImmunoPure TMB Substrate Kit (Pierce, Rockford, Ill.). Absorbance was measured at 450 nm. All experiments were performed in triplicate.
During virus infection, integrins are utilized as primary viral attachment receptors or as post-attachment (fusion-activating) or internalization receptors.^11 To determine at which step in the HCMV entry pathway integrins are functioning, cell binding (i.e., attachment) experiments were performed, as well as assays to measure viral payload delivery into the cytoplasm (internalization). For the binding assays, virus was bound at 4° C. to allow for stable virus binding, but to restrict fusion and internalization. The results are depicted in FIG. 6A. […] Attachment was measured by gB ELISA.

HCMV = assay: Viral payload delivery: pp65 localization in fibroblasts after HCMV infection; assay type: cell-based, Human cytomegalovirus; details: human fibroblasts treated, then infected with HCMV
Procedure: as §1
Next, an assay was performed that directly measured delivery of an internal virion component. […] FIG. 6B is a histogram showing the results of a series of assays wherein human fibroblasts were treated with various integrin-blocking agents, infected with HCMV, and then assayed for viral payload as measured by pp65 localization. […]

MCMV = assay: Virus entry assay: MCMV infectivity (e1-positive cells); assay type: cell-based, Murine cytomegalovirus; details: mouse fibroblasts (murine 3T3) treated with peptide, then MCMV challenge
Procedure: as §1
FIG. 4B is a histogram showing the results of an assay wherein GD25, GD25β1 and 3T3 cells were treated with β1, β3, and β1+β3 antibodies, followed by MCMV infection. As described above, infectivity was determined by scoring e1-(early protein) positive cells. […]

Substance	inhibition of HCMV infectivity compared to infectivity seen with no treatment (HCMV strain AD169)	reorganization of the cytoskeleton (NHDF cells)	ability of HSV-1 to infect cells after peptide treatment (HSV-1(KOS)gL86)	HCMV attachment (binding) to host cells (HCMV AD 169)	uptake of pp65 tegument protein (HCMV)	MCMV infectivity after peptide treatment (MCMV)
AVCSMAGGTAAIRAERNIIC (listed as Human cytomegalovirus) [gB disintegrin-like null peptide, null peptide containing alanine substitutions in the disintegrin-like consensus residues, reference compound]	HCMV was able to infect	–	–	–	–	–
EGF: a known cytoskeletal reorganizer [reference compound]	–	triggered a dramatic reorganization of the cytoskeleton	–	–	–	–
RVCSMAQGTDLIRFERNIIC (listed as Human cytomegalovirus) [gB disintegrin-like peptide, 20 amino acid synthetic peptide encompassing the HCMV gB disintegrin-like domain]	dose-dependent inhibitory response to infection	–	no effect	no effect on HCMV attachment	little uptake of the pp65 tegument protein	dramatic reduction in MCMV infectivity
